Laboratory results: patent US10772866B2 (UNIVERSITY-INDUSTRY COOPERATION GROUP OF KYUNG HEE …, priority 2013, dated 2020)

Test system: CA1 neuron region of hippocampal tissue
Test: Crystal violet staining of CA1 neuron region of hippocampal tissue after transient global ischemia
Assay type: in vivo, CD1 mice
Conditions: mice after transient global ischemia; fluoxetine, vitamin C alone or together at trace amount; vs normal and negative control groups
Description: Eight-week old adult male CD1 mice with a weight of 33 g to 37 g were induced to be anesthetized by injecting with 2% isoflurane under an air condition, in which nitrous oxide and oxygen were in a 70:30 ratio, and the mice were induced to have transient global ischemia according to the previous disclosure while the mice were maintained in the anesthetized state with 1% isoflurane (Kim, D. H. et. al, 2009. Food Chem. Toxicol. 47, 1473-1479.). The thus-prepared mice with transient global ischemia put into cages (4 mice/cage) were given ad libitum access to water and foods, and bred in an environment of a constant temperature (23±1° C.) and continuous humidity (60±10%) under a 12 hour light/dark cycle.
Specifically, the brains obtained and stored by performing in the same manner as in <Example 6> were cut into 30 μm coronal plane sections, placed on gelatin-coated slides, stained with crystal violet, and dehydrated by adding 70%, 80%, 90%, and 100% alcohol in this order. Upon dehydration, xylene was added thereto, covered with coverslips, and the CA1 neuron region of hippocampal tissue was observed.

Structure (SMILES)	recovery of hippocampal tissue injury (CA1 neuron region, preserved cells, FIGS. 7 and 8)
CNCCC(Oc1ccc(C(F)(F)F)cc1)c1ccccc1 (centres unmarked) [fluoxetine]	a recovery similar to that of the negative control group
O=C1O[C@H]([C@@H](O)CO)C(O)=C1O [vitamin C, ascorbic acid]	a recovery similar to that of the negative control group
